Bounds are passed on as bounds.

The test has as its target skeletal myofibrils (myosin ATPase activity). The test is described as follows: Skeletal Myofibril ATPase Assay. The test is classed as biochemical. The conditions noted are these: PK-LDH coupled, absorbance at 340 nm. As to the method: Overview: Myosin ATPase activity is assessed by using a coupled reaction system, in which ADP generated by the myosin ATPase function is coupled to the disappearance of NADH through the pyruvate kinase/lactate dehydrogenase (PK-LDH) system. Myosin ATPase activity produces ADP, which is used as a substrate for PK to produce pyruvate and regenerate ATP. The pyruvate is then used as a substrate by LDH to oxidize NADH to NAD+. The rate of the reaction is monitored through the time-dependent disappearance of NADH using absorbance at 340 nm. Inhibition of ATPase activity by the assayed compounds is indicated by a reduced rate of NADH loss, relative to vehicle-treated controls, over the experimental time window. To assess the selectivity of the assayed compounds for skeletal myofibrils, the compounds are counter-screened in cardiac myofibrils.
Materials: The following stock solutions and reagents were used in the Skeletal Myofibril ATPase Assay:
Stock Solutions of pCa buffer. Combine PIPES, CaCl2, and EGTA solutions with 70 mL of water. Adjust pH to 7.0 and bring final volume to 100 mL.
Skeletal Myofibril ATPase Assay Procedure: BSA, ATP, NADH, PEP, and DTT solutions were thawed at room temperature, then transferred to ice. Pellet-frozen myofibrils (approximately twice the required volume) were transferred into a sufficiently large tube and capped. Myofibrils were thawed by rolling in a water bath for approximately 15 min at room temperature and cooled on ice. Buffers A and B were prepared by adjusting volumes as necessary for required number of wells and stored on ice. 0.5 μL of the compounds to be assayed were added into wells of a 384-well plate. Buffers A and B were mixed by inversion immediately prior to use, then 25 μL of each was dispensed using a Multidrop dispenser (Buffer A first, then Buffer B). The absorbance within the wells was measured at 340 nm, using a kinetic protocol in which the wells are read every 1.5-2 min for 1 h. The reaction rate was qualitatively assessed by subtracting the minimum absorbance value from the maximum value for each well, using either the SoftMax Pro plate reader software or a spreadsheet program such as Excel. Using GraphPad Prism 8.0, the data was normalized, with 100% activity defined as the absorbance change in the 1% DMSO vehicle wells and 0% assigned to no change in absorbance over the course of the experiment. The normalized data were fit to a variable-slope four-parameter logistic model, constraining the bottom to be 0 or greater. Compounds of Table 1 to 4 were tested and results of the assay appear in Table 5 herein. A=IC50 is less than or equal to 10 μM; B=IC50 is greater than 10 μM and less than 100 μM; C=IC50 is greater than 100 μM; […].
Turning to `Cc1ncc(Cn2nc(-c3cnc(OCC(F)(F)F)nc3)ccc2=O)cc1F` [Compound 52, 2-((5-fluoro-6-methylpyridin-3-yl)methyl)-6-(2-(2,2,2-trifluoroethoxy)pyrimidin-5-yl)pyridazin-3(2H)-one], the 50% inhibitory concentration (IC50) is less than 10 µM.

In turn, `O=c1ccc(-c2cnc(OCC(F)(F)F)nc2)nn1Cc1cnco1` [Compound 53, 2-(oxazol-5-ylmethyl)-6-(2-(2,2,2,- trifluoroethoxy)pyrimidin-5-yl)pyridazin-3(2H)-one] registered a 50% inhibitory concentration (IC50) of less than 10 µM.

In the case of `O=c1ccc(-c2cnc(N3CCCC3C(F)(F)F)nc2)nn1Cc1cncc(F)c1` (stereo not drawn) [Compound 54, 2-((5-fluoropyridin-3-yl)methyl)-6-(2-(2-(trifluoromethyl)pyrrolidin-l-yl)pyrimidin-5-yl)pyridazin-3(2H)-one], the IC50 was less than 10 µM.

`O=c1ccc(-c2cnc(OCC(F)(F)F)nc2)nn1Cc1nc2cc(F)ccc2o1` [Compound 55, 2-((5-fluorobenzo[d]oxazol-2-yl)methyl)-6-(2-(2,2,2,- trifluoroethoxy)pyrimidin-5-yl)pyridazin-3(2H)-one] returned an IC50 of less than 10 µM.

As for `COCc1cc(Cn2nc(-c3cnc(OCC(F)(F)F)nc3)ccc2=O)on1` [Compound 56, 2-((3-(methoxymethyl)isoxazol-5-yl)methyl)-6-(2-(2,2,2-trifluoroethoxy)pyrimidin-5-yl)pyridazin-3(2H)-one], the half-maximal inhibitory concentration (IC50) is less than 10 µM.

As to `N#Cc1cncc(Cn2nc(-c3ccc(OC(F)F)nc3)ccc2=O)c1` [Compound 57, 5-((3-(6-(difluoromethoxy)pyridin-3-yl)-6-oxopyridazin-1(6H)-yl)methyl)nicotinonitrile], the IC50 is 10 to 100 µM.

The compound `Cn1cc(Cn2nc(-c3cnc(OCC(F)(F)F)nc3)ccc2=O)cn1` [Compound 58, 2-((1-methyl-1H-pyrazol-4-yl)methyl)-6-(2-(2,2,2-trifluoroethoxy)pyrimidin-5-yl)pyridazin-3(2H)-one] returned an IC50 of less than 10 µM.

`O=c1ccc(-c2cnc(OCC(F)(F)F)nc2)nn1Cc1cncs1` [Compound 59, 2-(thiazol-5-ylmethyl)-6-(2-(2,2,2-trifluoroethoxy)pyrimidin-5-yl)pyridazin-3(2H)-one] returned a half-maximal inhibitory concentration (IC50) of less than 10 µM.

For the compound `Cc1ncc(Cn2nc(-c3cnc(OCC(F)(F)F)nc3)ccc2=O)o1` [Compound 60, 2-((2-methyloxazol-5-yl)methyl)-6-(2-(2,2,2-trifluoroethoxy)pyrimidin-5-yl)pyridazin-3(2H)-one], the IC50 was less than 10 µM.

In turn, `Cc1ncc(Cn2nc(-c3cnc(OCC(F)(F)F)nc3)ccc2=O)s1` [Compound 61, 2-((2-methylthiazol-5-yl)methyl)-6-(2-(2,2,2-trifluoroethoxy)pyrimidin-5-yl)pyridazin-3(2H)-one] displayed a 50% inhibitory concentration (IC50) of less than 10 µM.

The compound `O=c1ccc(-c2cnc(NC34CC(C3)C4)nc2)nn1Cc1cncc(F)c1` [Compound 64, 6-(2-(bicyclo[1.1.1]pentan-1-ylamino)pyrimidin-5-yl)-2-((5-fluoropyridin-3-yl)methyl)pyridazine-3(2H)-one] had a half-maximal inhibitory concentration (IC50) of less than 10 µM.

`CSc1ncc(-c2ccc(=O)n(Cc3cc(C)no3)n2)cn1` [Compound 65, 2-((3-methylisoxazol-5-yl)methyl)-6-(2-(methylthio)pyrimidin-5-yl)pyridazine-3(2H)-one] gave a concentration for half-maximal inhibition (IC50) of less than 10 µM.

As to `O=c1ccc(-c2cnc(OCC3(F)COC3)nc2)nn1Cc1cncc(F)c1` [Compound 66, 6-(2-((3-fluorooxetan-3-yl)methoxy)pyrimidin-5-yl)-2((5-fluoropyridin-3-yl)methyl)pyridazine-3(2H)-one], the IC50 is less than 10 µM.

In the case of `CCOc1ncc(-c2ccc(=O)n(Cc3cncc(F)c3)n2)cn1` [Compound 68, 6-(2-ethoxypyrimidin-5-yl)-2-((5-fluoropyridin-3-yl)methyl)pyridazine-3(2H)-one], the 50% inhibitory concentration (IC50) was less than 10 µM.

As for `COc1ncc(-c2ccc(=O)n(Cc3cncc(F)c3)n2)cn1` [Compound 69, 2-((5-fluoropyridin-3-yl)methyl)-6-(2-methoxypyrimidin-5-yl)pyridazine-3(2H)-one], the half-inhibitory concentration (IC50) was less than 10 µM.

Turning to `COCCOc1ncc(-c2ccc(=O)n(Cc3cncc(F)c3)n2)cn1` [Compound 70, 2-((5-fluoropyridin-3-yl)methyl)-6-(2-(2-methoxyethoxy)pyrimidin-5-yl)pyridazine-3(2H)-one], the 50% inhibitory concentration (IC50) is less than 10 µM.

The compound `O=c1ccc(-c2ccc(NC34CC(C3)C4)nc2)nn1Cc1cccnc1` [Compound 71] came in with an IC50 of less than 10 µM.

`O=c1ccc(-c2ccc(NC34CC(C3)C4)nc2)nn1Cc1cncc(F)c1` [Compound 72, 6-(6-(bicyclo[1.1.1]pentan-1-ylamino)pyridin-3-yl)-2-((5-fluoropyridin-3-yl)methyl)pyridazin-3(2H)-one] displayed an IC50 of less than 10 µM.

Regarding `O=c1ccc(-c2cnc(N3CCC[C@@H]3C(F)(F)F)nc2)nn1Cc1cncc(F)c1` [Compound 73, (R)-2-((5-fluoropyridin-3-yl)methyl)-6-(2-(2-(trifluoromethyl)pyrrolidin-1-yl)pyrimidin-5-yl)pyridazin-3(2H)-one], the 50% inhibitory concentration (IC50) was less than 10 µM.

Consider `O=c1ccc(-c2cnc(N3CCC[C@H]3C(F)(F)F)nc2)nn1Cc1cncc(F)c1` [Compound 74, (S)-2-((5-fluoropyridin-3-yl)methyl)-6-(2-(2-(trifluoromethyl)pyrrolidin-1-yl)pyrimidin-5-yl)pyridazin-3(2H)-one], for which the IC50 was less than 10 µM.

`O=c1ccc(-c2cnc(NC34CC(C3)C4)nc2)nn1Cc1cncc(Cl)c1` [Compound 75, 6-(2-(bicyclo[1.1.1]pentan-1-ylamino)pyrimidin-5-yl)-2-((5-chloropyridin-3-yl)methyl)pyridazin-3(2H)-one] displayed an IC50 of less than 10 µM.

Take `O=c1ccc(-c2ccc(OC(F)F)nc2)nn1Cc1cncc(C(F)(F)F)c1` [Compound 76, 6-(6-(difluoromethoxy)pyridin-3-yl)-2-((5-(trifluoromethyl)pyridin-3-yl)methyl)pyridazin-3(2H)-one]: the 50% inhibitory concentration (IC50) was less than 10 µM.

With `O=c1ccc(-c2cnc(OCC(F)(F)F)nc2)nn1Cc1cncc(C(F)(F)F)c1` [Compound 77, 6-(2-(2,2,2-trifluoroethoxy)pyrimidin-5-yl)-2-((5-(trifluoromethyl)pyridin-3-yl)methyl)pyridazin-3(2H)-one], the half-maximal inhibitory concentration (IC50) is less than 10 µM.

Regarding `O=c1ccc(-c2cnc(OCC(F)(F)F)nc2)nn1Cc1cnccc1O` [Compound 78, 2-((4-hydroxypyridin-3-yl)methyl)-6-(2-(2,2,2-trifluoroethoxy)pyrimidin-5-yl)pyridazin-3(2H)-one], the IC50 was more than 100 µM.

In the case of `O=c1ccc(-c2cnc(OCC(F)(F)F)nc2)nn1Cc1cnccc1F` [Compound 79, 2-((4-fluoropyridin-3-yl)methyl)-6-(2-(2,2,2-trifluoroethoxy)pyrimidin-5-yl)pyridazin-3(2H)-one], the half-maximal inhibitory concentration (IC50) was less than 10 µM.

Consider `O=c1ccc(-c2cnc(OCC(F)(F)F)nc2)nn1Cc1ccc[n+]([O-])c1` [Compound 80, 3-((6-oxo-3-(2-(2,2,2-trifluoroethoxy)pyrimidin-5-yl)pyridazin-1(6H)-yl)methyl)pyridine 1-oxide], for which the concentration for half-maximal inhibition (IC50) was more than 100 µM.

`O=c1ccc(-c2cnc(OCC(F)(F)F)nc2)nn1Cc1cc[n+]([O-])cc1` [Compound 81, 4-((6-oxo-3-(2-(2,2,2-trifluoroethoxy)pyrimidin-5-yl)pyridazin-1(6H)-yl)methyl)pyridine 1-oxide] registered an IC50 of more than 100 µM.

`O=c1ccc(-c2cnc(OCC(F)(F)F)nc2)nn1Cc1cc(F)c[n+]([O-])c1` [Compound 82, 3-fluoro-5-((6-oxo-3-(2-(2,2,2-trifluoroethoxy)pyrimidin-5-yl)pyridazin-1(6H)-yl)methyl) pyridine 1-oxide] displayed a half-maximal inhibitory concentration (IC50) of 10 to 100 µM.

Turning to `Cc1nc(Cn2nc(-c3cnc(OCC(F)(F)F)nc3)ccc2=O)co1` [Compound 83, 2-((2-methyloxazol-4-yl)methyl)-6-(2-(2,2,2-trifluoroethoxy)pyrimidin-5-yl)pyridazin-3(2H)-one], the IC50 fell in the range of 10 to 100 µM.

As for `O=c1ccc(-c2cnc(OCC(F)(F)F)nc2)nn1Cc1cnc(O)c(Cl)c1` [Compound 84, 2-((5-chloro-6-hydroxypyridin-3-yl)methyl)-6-(2-(2,2,2-trifluoroethoxy)pyrimidin-5-yl)pyridazin-3(2H)-one], the IC50 is more than 100 µM.

On to `O=c1ccc(-c2cnc(OCC(F)(F)F)nc2)nn1Cc1cnoc1` [Compound 85, 2-(isoxazol-4-ylmethyl)-6-(2-(2,2,2-trifluoroethoxy)pyrimidin-5-yl)pyridazin-3(2H)-one], for which the half-maximal inhibitory concentration (IC50) was 10 to 100 µM.

(Values after patent US11873290B2, “Pyridazinone compounds and uses thereof” (Edgewise Therapeutics, Inc., priority 2018, dated 2024).)
